Like-named read-outs stand apart in the source and are kept apart here.
How the values were obtained:
[1] = target: T1, JAK2 JH2 WT (V536-D812) [W659A, W777A, F794H solubilizing mutations] (Homo sapiens, UniProt O60674, F794H/W659A/W777A); assay: Surface Plasmon Resonance (SPR) binding assay, JAK2 JH2 domain
T1 construct: **JAK2 JH2 WT (V536-D812) [W659A, W777A, F794H solubilizing mutations]; C-thrombin-avi-His6; thrombin cleavage site (C); His6 (C); purchased Biortus
Procedure, shortened: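 Kinetics came from 1:1 fits of single-cycle runs at 20 °C: four 3-fold dilutions from 5 uM for JH1 or 500 nM for JH2, 60 s association, and 300 s or 1200 s dissociation respectively. Protein was freshly captured per compound in the presence of 10 uM stabilizer compound, with running buffer of pH 7.5 HEPES/NaCl/glycerol/DTT plus 2% DMSO.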

[2] = test system: TF1 JAK2 V617F STAT3 reporter; assay: Cellular TF1 STAT3 assay (luciferase reporter), JAK2 V617F; assay type: cell-based; details: read-out: Cell PD-TF1 JAK2 V617F STAT3 (IC50)
Procedure, shortened: (§1)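 TF1 V617F JAK2 reporter cells, 10k/well; 10-pt 1:3 dose response from 10 mM 1000× DMSO stock; 18-20 h, 37 °C, 5% CO2; ONE-glo, 10 min RT; luminescence. Triplicate plates, DMSO vehicle.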

[3] = test system: TF1 JAK2 V617F STAT5 reporter; assay: Cellular TF1 STAT5 assay (luciferase reporter), JAK2 V617F; assay type: cell-based; details: read-out: Cell PD TF1 V617F STAT5 (IC50)
Procedure, shortened: as §1

[4] = Homo sapiens, TF-1, TF1 cells, JAK2 V617F

T1 sequence (O60674 536-812 W659A/W777A/F794H): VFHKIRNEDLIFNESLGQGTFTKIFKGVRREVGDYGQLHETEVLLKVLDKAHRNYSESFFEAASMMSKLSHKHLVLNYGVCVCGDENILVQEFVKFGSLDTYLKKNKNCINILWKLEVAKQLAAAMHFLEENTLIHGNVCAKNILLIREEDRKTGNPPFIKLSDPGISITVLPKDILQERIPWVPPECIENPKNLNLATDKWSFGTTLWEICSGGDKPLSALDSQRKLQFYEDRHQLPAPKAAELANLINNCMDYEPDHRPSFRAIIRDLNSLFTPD

Row | SMILES | Kd ([1]; SPR, JAK2 JH2 domain) [nM] | IC50 ([2]; TF1 JAK2 V617F) [nM] | IC50 ([3]; TF1 JAK2 V617F) [nM] | Kd [1] [nM] | IC50 [2, 4] [nM] | IC50 [3, 4] [nM]
1 | CNC(=O)c1nnc(NC(=O)C2CC2)cc1Nc1cccc(-c2cc(C3CN(Cc4cnn(C)c4)C3)n(C)n2)c1OC [Compound 187] | 50 to 500 | 5000 to 100000 | 5000 to 100000 |  |  | 
2 | CNC(=O)c1nnc(NC(=O)C2CC2)cc1Nc1cccc(-c2ccc(C(=O)N(C)Cc3cncc(C#N)c3)nc2)c1OC [Compound 188] | 0.01 to 10 | 500 to 5000 | 500 to 5000 |  |  | 
3 | CNC(=O)c1nnc(NC(=O)C2CC2)cc1Nc1cccc(-c2cc(C3CN(Cc4ccccn4)C3)nn2C)c1OC [Compound 189] | 10 to 50 | 5000 to 100000 | 5000 to 100000 |  |  | 
4 | CNC(=O)c1cnc(NC(=O)C2CC2)cc1Nc1cccc(-c2cnn(C3CN(Cc4ccccn4)C3)c2)c1OC [Compound 190] | 0.01 to 10 | 500 to 5000 | 500 to 5000 |  |  | 
5 | CNC(=O)c1nnc(NC(=O)C2CC2)cc1Nc1cccc(-c2cc(C3CN(Cc4cccc(C#N)n4)C3)nn2C)c1OC [Compound 191] | 10 to 50 | 5000 to 100000 | 5000 to 100000 |  |  | 
6 | CNC(=O)c1nnc(NC(=O)C2CC2)cc1Nc1cccc(-c2ccc(C(=O)N(C)Cc3cnsc3)nc2)c1OC [Compound 195] | 0.01 to 10 | 500 to 5000 | 500 to 5000 |  |  | 
7 | CNC(=O)c1nnc(NC(=O)C2CC2)cc1Nc1cccc(-c2ccc(C(=O)N3CCc4cccnc4CC3)nc2)c1OC [Compound 196] |  |  |  | 0.01 to 10 | 500 to 5000 | 500 to 5000
8 | CNC(=O)c1nnc(NC(=O)C2CC2)cc1Nc1cccc(-c2ccc(C(=O)N(C)Cc3c(C)nn(C)c3Cl)nc2)c1OC [Compound 197] |  |  |  | 0.01 to 10 | 50 to 500 | 50 to 500
9 | CNC(=O)c1nnc(NC(=O)C2CC2)cc1Nc1cccc(-c2ccc(C(=O)N(C)Cc3cn(C)nc3C(C)C)nc2)c1OC [Compound 198] |  |  |  | 0.01 to 10 | 50 to 500 | 50 to 500
10 | CNC(=O)c1nnc(NC(=O)C2CC2)cc1Nc1cccc(-c2ccc(C(=O)N(C)Cc3csc(C(C)C)n3)nc2)c1OC [Compound 199] |  |  |  | 0.01 to 10 | 50 to 500 | 50 to 500
11 | CNC(=O)c1nnc(NC(=O)C2CC2)cc1Nc1cccc(-c2cnn(C3CN(Cc4cccc(C(F)(F)F)n4)C3)c2)c1OC [Compound 200] |  |  |  | 0.01 to 10 | 50 to 500 | 50 to 500
12 | CNC(=O)c1nnc(NC(=O)C2CC2)cc1Nc1cccc(-c2cnn(C3CN(Cc4cccc(Br)n4)C3)c2)c1OC [Compound 201] |  |  |  | 0.01 to 10 | 50 to 500 | 50 to 500
13 | CNC(=O)c1nnc(NC(=O)C2CC2)cc1Nc1cccc(-c2cc(C3CN(Cc4cccc(C#N)n4)C3)n(C)n2)c1OC [Compound 202] |  |  |  | 50 to 500 | 5000 to 100000 | 5000 to 100000
14 | CNC(=O)c1nnc(NC(=O)C2CC2)cc1Nc1cccc(-c2cc(C3CN(Cc4ccccn4)C3)n(C)n2)c1OC [Compound 203] |  |  |  | 50 to 500 | 5000 to 100000 | 5000 to 100000
15 | COc1c(Nc2cc(NC(=O)C3CC3)nn3cc(C)nc23)cccc1-c1cnn(C2CN(Cc3ccccn3)C2)c1 [Compound 204] |  |  |  | 0.01 to 10 | 500 to 5000 | 500 to 5000
16 | CNC(=O)c1nnc(NC(=O)C2CC2)cc1Nc1ccc(Cl)c(-c2ccc(C(=O)N(C)Cc3cc(C#N)n(C)n3)nc2)c1OC [Compound 205] |  |  |  | 0.01 to 10 | 50 to 500 | 50 to 500
17 | CNC(=O)c1nnc(NC(=O)C2CC2)cc1Nc1cccc(-c2ccc(C(=O)N(C)Cc3scnc3C)nc2)c1OC [Compound 210] |  |  |  | 0.01 to 10 | 5000 to 100000 | 500 to 5000
18 | CNC(=O)c1nnc(NC(=O)C2CC2)cc1Nc1cccc(-c2ccc(C(=O)N(C)Cc3cnc(C)s3)nc2)c1OC [Compound 211] |  |  |  | 0.01 to 10 | 5000 to 100000 | 500 to 5000
19 | CNC(=O)c1nnc(NC(=O)C2CC2)cc1Nc1cccc(-c2cnn(C3CN(Cc4cccnc4C#N)C3)c2)c1OC [Compound 212] |  |  |  | 0.01 to 10 | 50 to 500 | 50 to 500
20 | CNC(=O)c1nnc(NC(=O)C2CC2)cc1Nc1cccc(-c2cnn(C3CN(Cc4cn(C)nc4C)C3)c2)c1OC [Compound 213] |  |  |  | 0.01 to 10 | 500 to 5000 | 500 to 5000
21 | CNC(=O)c1nnc(NC(=O)C2CC2)cc1Nc1cccc(-c2cnn(C3CN(Cc4cccc(COC)n4)C3)c2)c1OC [Compound 216] |  |  |  | 0.01 to 10 | 50 to 500 | 50 to 500
22 | CNC(=O)c1nnc(NC(=O)C2CC2)cc1Nc1ccc(Cl)c(-c2ccc(C(=O)N(C)Cc3cc(C#N)ccn3)cc2)c1OC [Compound 217] |  |  |  | 0.01 to 10 | 500 to 5000 | 500 to 5000

Row | SMILES | Kd ([1]; SPR, JAK2 JH2 domain) [nM] | IC50 ([2]; TF1 JAK2 V617F) [nM] | IC50 ([3]; TF1 JAK2 V617F) [nM] | Kd [1] [nM] | IC50 [2, 4] [nM] | IC50 [3, 4] [nM]
23 | CNC(=O)c1nnc(NC(=O)C2CC2)cc1Nc1nccc(-c2cnn(C3CN(Cc4ccccn4)C3)c2)c1OC [Compound 218] |  |  |  | 0.01 to 10 | 50 to 500 | 500 to 5000
24 | COc1c(Nc2cc(NC(=O)C3CC3)nn3cc(C)nc23)cccc1-c1ccc(C(=O)N(C)Cc2cc(C#N)ccn2)nc1 [Compound 219] |  |  |  | 0.01 to 10 | 500 to 5000 | 500 to 5000
25 | CNC(=O)c1nnc(NC(=O)C2CC2)cc1Nc1cccc(-c2ccc(C(=O)N(C)Cc3cn(C)nc3C)cc2)c1OC [Compound 221] |  |  |  | 0.01 to 10 | 50 to 500 | 50 to 500
26 | CNC(=O)c1nnc(NC(=O)C2CC2)cc1Nc1cccc(-c2ccc(C(=O)N(C)Cc3cn(C)nc3C(F)F)nc2)c1OC [Compound 222] |  |  |  | 0.01 to 10 | 50 to 500 | 50 to 500
27 | CNC(=O)c1nnc(NC(=O)C2CC2)cc1Nc1ccc(Cl)c(-c2ccc(C(=O)N(C)Cc3ccn(C)n3)nc2)c1OC [Compound 223] |  |  |  | 0.01 to 10 | 500 to 5000 | 50 to 500
28 | CNC(=O)c1nnc(NC(=O)C2CC2)cc1Nc1cccc(-c2ncn(C3CN(Cc4ccccn4)C3)n2)c1OC [Compound 224] |  |  |  | 0.01 to 10 | 5000 to 100000 | 5000 to 100000
29 | CNC(=O)c1nnc(NC(=O)C2CC2)cc1Nc1cccc(-c2cnn(C3CN(Cc4cccc(CO)n4)C3)c2)c1OC [Compound 228] |  |  |  | 0.01 to 10 | 50 to 500 | 50 to 500
30 | CNC(=O)c1nnc(NC(=O)C2CC2)cc1Nc1cccc(-c2cnn(C3CN(C(=O)c4ccccn4)C3)c2)c1OC [Compound 229] |  |  |  | 0.01 to 10 | 500 to 5000 | 500 to 5000
31 | CNC(=O)c1nnc(NC(=O)C2CC2)cc1Nc1ccc(C)c(-c2cnc(C(=O)N(C)Cc3cn(C)nc3C)c(F)c2)c1OC [Compound 230] |  |  |  | 0.01 to 10 | 50 to 500 | 50 to 500
32 | COc1c(Nc2cc(NC(=O)C3CC3)nn3cc(C)nc23)cccc1-c1ccc(C(=O)N(C)Cc2cn(C)nc2C)nc1 [Compound 231] |  |  |  | 0.01 to 10 | 500 to 5000 | 500 to 5000
33 | CNC(=O)c1nnc(NC(=O)C2CC2)cc1Nc1cccc(-c2cnn(C3CN(Cc4cccc(C#N)n4)C3)c2)c1 [Compound 232] |  |  |  | 10 to 50 | 5000 to 100000 | 5000 to 100000
34 | CNC(=O)c1nnc(NC(=O)C2CC2)cc1Nc1nccc(-c2ccc(C(=O)N(C)Cc3cc(C#N)ccn3)nc2)c1OC [Compound 240] |  |  |  | 0.01 to 10 | 50 to 500 | 500 to 5000
35 | CNC(=O)c1nnc(NC(=O)C2CC2)cc1Nc1cccc(-c2cnn(C3CN(Cc4cccc(C#CC5CC5)n4)C3)c2)c1OC [Compound 241] |  |  |  | 0.01 to 10 | 50 to 500 | 50 to 500
36 | CNC(=O)c1nnc(NC(=O)C2CC2)cc1Nc1cccc(-c2cnn(C3CN(Cc4cccc(N)n4)C3)c2)c1OC [Compound 242] |  |  |  | 0.01 to 10 | 50 to 500 | 50 to 500
37 | CNC(=O)c1nnc(NC(=O)C2CC2)cc1Nc1cccc(-c2cnn(C3CN(Cc4cccc(OC(F)F)n4)C3)c2)c1OC [Compound 243] |  |  |  | 0.01 to 10 | 50 to 500 | 50 to 500
38 | CNC(=O)c1nnc(NC(=O)C2CC2)cc1Nc1cccc(-c2ccc(C(=O)N(C)Cc3ncc(COC)s3)nc2)c1OC [Compound 244] |  |  |  | 0.01 to 10 | 50 to 500 | 50 to 500
39 | CNC(=O)c1nnc(NC(=O)C2CC2)cc1Nc1cccc(-c2cnn(C3CN(Cc4cccc5ncnn45)C3)c2)c1OC [Compound 248] |  |  |  | 0.01 to 10 | 50 to 500 | 50 to 500
40 | CNC(=O)c1nnc(NC(=O)C2CC2)cc1Nc1cccc(-c2cnn(C3CN(Cc4ccc(C#N)cn4)C3)c2)c1OC [Compound 249] |  |  |  | 10 to 50 | 5000 to 100000 | 5000 to 100000
41 | CNC(=O)c1nnc(NC(=O)C2CC2)cc1Nc1cccc(-c2cnn(C3CN(Cc4cc(Cl)ccn4)C3)c2)c1OC [Compound 250] |  |  |  | 0.01 to 10 | 50 to 500 | 50 to 500
42 | CNC(=O)c1nnc(NC(=O)C2CC2)cc1Nc1cccc(-c2cnn(C3CN(Cc4cccn(C(F)F)c4=O)C3)c2)c1OC [Compound 251] |  |  |  | 0.01 to 10 | 50 to 500 | 50 to 500
43 | CNC(=O)c1nnc(NC(=O)C2CC2)cc1Nc1cccc(-c2ccc(C(=O)N(C)Cc3cn(C)nc3C3CC3)nc2)c1OC [Compound 252] |  |  |  | 0.01 to 10 | 50 to 500 | 50 to 500
